Measurements reported in PubChem BioAssay (NCI).
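A five-concentration, 48-hour dose response in 96-well plates underlies each endpoint, interpolated linearly between surrounding concentrations. GI50: concentration for 50% inhibition of growth. TGI is the concentration that stops growth completely.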 Where a SMILES comes first, the peptide text is derived from it. Bridges are numbered along the chain shown (N, C = ends). The star is where a group is joined. Cbz = O=C(OCc1ccccc1)*

Legend:
Assay in all cases: NCI tumour cell line growth inhibition, 48 h
MDA-MB-231 breast = tested on: MDA-MB-231 breast
MOLT-4 leukemia = tested on: MOLT-4 leukemia
NCI-H460 lung = tested on: NCI-H460 lung
NCI/ADR-RES ovarian = tested on: NCI/ADR-RES ovarian
SK-MEL-2 melanoma = tested on: SK-MEL-2 melanoma
T-47D breast = tested on: T-47D breast
U251 CNS = tested on: U251 CNS
UO-31 renal = tested on: UO-31 renal
786-0 renal = tested on: 786-0 renal

Compound	GI50 (MDA-MB-231 breast) [µM]	TGI (MDA-MB-231 breast) [µM]	GI50 (MOLT-4 leukemia) [µM]	TGI (MOLT-4 leukemia) [µM]	GI50 (NCI-H460 lung) [µM]	TGI (NCI-H460 lung) [µM]	GI50 (NCI/ADR-RES ovarian) [µM]	TGI (NCI/ADR-RES ovarian) [µM]	GI50 (SK-MEL-2 melanoma) [µM]	TGI (SK-MEL-2 melanoma) [µM]	GI50 (T-47D breast) [µM]	TGI (T-47D breast) [µM]	GI50 (U251 CNS) [µM]	TGI (U251 CNS) [µM]	GI50 (UO-31 renal) [µM]	TGI (UO-31 renal) [µM]	TGI (786-0 renal) [µM]
COc1cc(OC)cc(-c2n/c(=C\c3c(O)[nH]c4ccc(Cl)cc34)cc3c2=Nc2ccccc2-3)c1	2.84	13.4	2.18	4.74	3.26	10.5	3.03	10.8	20.8	43.4	4.39	17	1.75	3.22	12.5	29.2	–
COc1cc(/C=N\NC(=O)C[N+](C)(C)C)cc(OC)c1OC	–	> 10	–	> 10	–	–	–	> 10	–	–	–	> 10	–	> 10	–	–	> 10
C[C@@H]1CC[C@@H](C)[C@](C)(CCc2ccoc2)C/C=C\C=C/1C(=O)O	–	> 50	–	> 50	–	> 50	–	> 50	–	> 50	–	–	–	> 50	–	> 50	> 50
CC1C2CC(C/C2=N/O)C1(C)C (configuration not stated)	–	> 100	–	> 100	–	> 100	–	–	–	–	–	> 100	–	> 100	–	> 100	> 100
CC(=O)CC(C)(C)NC(=O)[C@@]1(O)CC[C@H]2[C@@H]3CCC4=CC(=O)CC[C@@H]4[C@H]3CC[C@@]21C	–	> 100	–	> 100	–	> 100	–	> 100	–	> 100	–	> 100	–	> 100	–	> 100	> 100
Cc1cc(C)c2c(=N)c3ccccc3n(CCCCCCO)c2n1	–	15.1	–	17.6	–	3.62	–	8.38	–	9.47	–	12.1	–	13.8	–	6.01	9.53
O=C(N/N=C/c1ccc(Cl)cc1)c1cc(I)cc(I)c1O	–	> 100	–	> 100	–	–	–	> 100	–	> 100	–	> 100	–	> 100	–	> 100	> 100
O=C1CCC2(O)C3Cc4ccc(Oc5nnnn5-c5ccccc5)c5c4C2(CCN3CC2CC2)C1O5 (configuration not stated)	–	> 100	–	> 100	–	> 100	–	> 100	–	53.1	–	> 100	–	> 100	–	61.1	41.2
C/C=C/[C@H]1O[C@@](O)([C@@H](C)[C@H](O)[C@H](C)[C@H]2OC(=O)/C(OC)=C/C(C)=C/[C@@H](C)[C@@H](O)[C@@H](CC)[C@@H](O)[C@H](C)C/C(C)=C/C=C/[C@@H]2OC)C[C@H](OC2CC(O)C(OC(N)=O)C(C)O2)[C@@H]1C (some centres not stated)	–	22.7	–	–	–	14.4	–	26.8	–	3.22	–	2.12	–	17.4	–	–	15.7
CCNc1ncnc2c1nnn2CC	–	> 100	–	> 100	–	–	–	> 100	–	> 100	–	> 100	–	> 100	–	> 100	> 100
Cc1cc(O)ccc1C1(c2ccc(F)cc2)OC(=O)c2ccccc21 (configuration not stated)	–	26.3	–	> 100	–	29	–	2.25	–	17.4	–	0.974	–	> 49.9	–	16.1	22.2
COc1ccc2c(-c3ccc(OCCN(C)C)cc3)c(Oc3ccc(Cl)cc3)c(=O)oc2c1	–	33.5	–	6.09	–	> 42.4	–	> 62.5	–	19.1	–	> 100	–	14.5	–	11.9	6.32
Nc1ccc(-c2nc3ccc(F)cc3s2)cc1	–	64	–	> 100	24.4	> 100	–	> 100	–	39.6	–	–	–	> 100	–	> 100	> 100
CCCCCn1c(=O)c2c(=O)[nH][nH]c2c2ccccc21	–	> 100	–	> 100	–	> 100	–	> 100	–	> 100	–	> 100	–	> 100	–	> 100	> 100
CNC(=S)N/N=C(\C)c1nc2ncccc2[nH]1	–	> 100	–	> 100	–	> 100	–	29.7	–	> 100	–	> 100	–	> 100	–	40.6	> 100
C=C(Br)CNCC(=C)Br	–	> 100	–	> 100	–	> 100	–	> 100	–	> 100	–	> 100	–	> 100	–	> 100	> 100
CCOC(=O)c1c(N2CCOCC2)[nH]c(=O)c(C(c2cccs2)c2c(O)c(C(=O)OCC)c(N3CCOCC3)[nH]c2=O)c1O	–	> 100	–	> 100	–	> 100	–	> 100	–	> 100	–	> 100	–	> 100	–	> 100	> 100
O=C(O)c1cc(Cl)cc2c1NC1(N2)C(=O)Nc2ccccc21 (configuration not stated)	–	> 100	–	> 100	–	> 100	–	> 100	–	> 100	–	> 100	–	> 100	–	> 100	> 100
Oc1nc(N/N=C/c2ccccc2)[nH]c1/C=C1\C=Nc2ccccc21	–	> 100	–	> 100	–	> 100	–	> 100	–	> 100	–	> 100	–	51.3	–	> 100	> 100
CC(=O)c1ccc(N2CCN(C3=CC(=O)c4c(O)ccc(O)c4C3=O)CC2)cc1	–	94.8	–	> 100	–	> 100	–	> 100	–	–	–	> 100	–	50.3	–	35.5	> 100
COC(=O)C1CCCCNC(=O)CCC(NC(=O)OCc2ccccc2)C(=O)N1 (stereo not drawn) (Cbz-Glu-Lys-OMe; lactam 1-2; configuration not given here)	–	> 100	–	> 100	–	> 100	–	> 100	–	> 100	–	> 100	–	> 100	–	> 100	> 100
O/N=C1/C2CC3CC1(c1ccccc1)CC(/C3=N/O)/C2=N\O (configuration not stated)	–	> 100	–	> 100	–	> 100	–	–	–	> 100	–	> 100	–	> 100	–	> 100	> 100
COc1nc(OC)nc(-c2cccc(F)c2)n1	–	30	–	> 100	–	32.9	–	31.7	–	38.6	–	33.8	–	31	–	31.8	63
